# In patent publication US20250375417A1, “OREXIN RECEPTOR 2 (OX2R) AGONIST FOR USE IN NARCOLEPSY TYPE 1 (NT1)” (TAKEDA PHARMACEUTICAL COMPANY LIMITED, priority 2024, published 2025):
# What was measured:
# [1] = system: participants with NT1; assay: Weekly cataplexy rate (WCR), Phase 2 NT1 trial; assay type: in vivo, human
# Description: In some aspects of the methods described herein, the subject experiences a lower weekly cataplexy rate (WCR) after a treatment period compared to an untreated subject.
# Cataplexy events are recorded for 14 consecutive days, starting after completion of washout of any anti-cataplexy medications and completed before Day-2 are considered for WCR study entry criterion. The total number of events/week (WCR) is calculated based on the number of cataplexy episodes averaged over 2 weeks, with at least 11 out of 14 days required to calculate the WCR.
# Randomization was stratified by region. Starting on the morning of Day 1, the study drug was administered at approximately the same time each day for 8 or 12 weeks. If the participant wished to enroll in the long-term extension (LTE) study described in Example 3 but the LTE study had not started at the participant's site when the participant completed the Week 8 visit of the current study, the participant was allowed to continue in the current study for an additional 4 weeks.
# The following doses were studied: • Compound A Dose Regimen 1:0.5 mg twice daily approximately 3 hours apart. • Compound A Dose Regimen 2:2 mg twice daily approximately 3 hours apart. • Compound A Dose Regimen 3:2 mg followed by 5 mg approximately 3 hours apart. • Compound A Dose Regimen 4:7 mg once daily (QD). • Other products required for the study: Matching placebo. […]
# [2] = system: patients with NT1; set-up: species or system human; settings: in vivo
# [3] = system: participants with NT1; assay: Safety (TEAEs), LTE study interim analysis, NT1 participants; assay type: in vivo, human; settings: for TEAE insomnia, frequency / TEAE micturition frequency, frequency / TEAE micturition urgency, frequency: LTE
# Description: This was a phase 2/3 multicenter, dose-blind, long-term extension (LTE) study of Compound A. Participants from controlled studies conducted with Compound A, who had up to a 3-month dosing gap between their parent study and the screening period for this study, were eligible to participate in this study.
# Day 1 dosing for all participants occurred in-clinic with PK and safety assessments. Participants who were undergoing nocturnal polysomnography (nPSG) and an MWT during the final assessment of their Compound A parent study had the option of staying overnight in the clinic on Day −1 so they were already in the clinic for Day 1 the following day. Clinic visits after Week 4 were scheduled monthly up to Week 12, then approximately every 3 months until the end of Year 2 (Weeks 2, 4, 8, 12, 26, 38, 52, 64, 78, 90, and 104). […] Participants had either an in-clinic or home health follow up visit 4 weeks after their last dose. All other visits could be conducted through home health. Laboratory tests for safety were obtained biweekly up until Week 12, followed by monthly until Year 1, and then approximately every 3 months thereafter. Monthly phone calls were conducted to collect adverse event (AE) and concomitant medication information in Year 2.
# In this dose-blind study, all participants received Compound A. Participants entering the study with or without a dosing gap from a parent Compound A study remained on the same indication-specific dose of Compound A assigned to them in their parent study. Participants randomized to placebo or comparator in their parent study were randomized to one of the indication-specific dose regimens of Compound A available in this study. The investigator could request a change to either a higher or lower dose level of Compound A to be dispensed at Week 8 in the LTE treatment period. Subsequently, if the participant wished to return to their original LTE dose, this could be implemented at Week 12 in the LTE. No further dose adjustments were allowed for the duration of the study, except on a case by case basis as approved by the sponsor. The dose never exceeded the maximum designated dose level in the study. For a participant with NT1, if the next highest dose was the 7 mg total daily dose, the participant was randomized to 1 of those 2 dose regimens (i.e., 2 mg followed by 5 mg, or 7 mg once daily).
# Standard safety endpoints (e.g., TEAEs, physical examination findings, vital signs, 12-lead ECG measures, clinical laboratory results) for early clinical investigation were included. Further, because cardiovascular effects had been noted in nonclinical models with Compound A and OX2R agonists in general, and these effects are thought to be on-target effects, close monitoring of cardiovascular parameters, including time-matched BP measurements before and after dosing to detect any changes and potential tolerance in BP after the administration of repeat doses to participants with NT1 or NT2 were included.
# For participants with NT1: • Dose Regimen 1: 0.5 mg twice daily, approximately 3 hours apart; • Dose Regimen 2: 2 mg followed by 2 mg, approximately 3 hours apart; • Dose Regimen 3: 2 mg followed by 5 mg, approximately 3 hours apart; * • Dose Regimen 4: 7 mg once daily.*
# Participants completing either Example 1 or Example 2 with ≤3 months between parent study-end and LTE screening could enroll. Primary endpoint is the occurrence of treatment-emergent adverse events (TEAEs); secondary endpoints are change from baseline (parent study) in sleep onset latency on the Maintenance of Wakefulness Test (SOL-MWT), Epworth Sleepiness Scale (ESS) score, and weekly cataplexy rate (WCR). Participants with NT1 receive oral Compound A 0.5 mg twice 3 hours apart, 2 mg twice 3 hours apart, 2 mg then 5 mg 3 hours apart, or 7 mg once daily. Dose adjustments are allowed at specific timepoints (8 weeks and 12 weeks of the study and at other weeks on a sponsor-approved case-by-case basis). TEAEs are summarized under the dose at TEAE onset.
# [4] = 0.5 mg/0.5 mg (dose at TEAE onset)
structure (smiles),measurement,setting,value
"CCS(=O)(=O)N[C@@H]1[C@H](Cc2cccc(-c3cc(F)cc(F)c3)c2F)N(C(=O)C(C)(C)O)CC1(F)F [Compound A, N-{(2S,3R)-4,4-difluoro-1-(2-hydroxy-2-methylpropanoyl)-2-[(2,3′,5′-trifluoro[1,1′-biphenyl]-3-yl)methyl]pyrrolidin-3-yl}ethanesulfonamide]",Change from baseline to Week 8 in WCR versus placebo,"[1]; 2 mg/2 mg and 2 mg/5 mg dose groups, adjusted for multiple comparisons",statistically significant changes
same,Median WCR versus placebo,[1]; twice daily dosing (FIG. 5),significantly reduced cataplexy events
same,Improvement on CPAL total errors,[2],statistically significant across all doses
same,Improvement on ONB reaction time,[2],statistically significant across all doses
same,Improvement on iDSST-s number correct,[2],statistically significant across all doses
same,Hepatotoxicity or visual disturbances,[3]; LTE interim,No cases of hepatotoxicity or visual disturbances were reported
same,"Participants with severe drug-related TEAEs (insomnia, cataplexy)",[3]; LTE interim (N=104),Two
same,Participants discontinued due to TEAEs,"[3]; LTE interim (N=104), 3 unrelated to Compound A",6
same,Participants who experienced a TEAE,"[3]; LTE interim analysis (N=104), all doses",54.8%
same,"TEAE insomnia, frequency",[3]; [4],7.1%
same,"TEAE micturition frequency, frequency",[3]; [4],10.7%
same,"TEAE micturition urgency, frequency",[3]; [4],10.7%
same,"TEAE insomnia, frequency",[3]; 2 mg/2 mg (dose at TEAE onset),10.9%
same,"TEAE micturition frequency, frequency",[3]; 2 mg/2 mg (dose at TEAE onset),4.3%
same,"TEAE micturition urgency, frequency",[3]; 2 mg/2 mg (dose at TEAE onset),2.2%
same,"TEAE insomnia, frequency",[3]; 2 mg/5 mg (dose at TEAE onset),10.8%
same,"TEAE micturition frequency, frequency",[3]; 2 mg/5 mg (dose at TEAE onset),8.1%
same,"TEAE micturition urgency, frequency",[3]; 2 mg/5 mg (dose at TEAE onset),2.7%
same,"TEAE insomnia, frequency",[3]; 7 mg (dose at TEAE onset),7.9%
same,"TEAE micturition frequency, frequency",[3]; 7 mg (dose at TEAE onset),7.9%
same,"TEAE micturition urgency, frequency",[3]; 7 mg (dose at TEAE onset),10.5%
